Data as given in the kinase profiling compilation of Christmann-Franck et al. (2016).

Columns and labels:
Test in all cases: KINOMEscan competition binding
Details in all cases: compound 10.0 µM
[1] = target: BTK (human) (UniProt Q06187)
[2] = target: KIT (human) (UniProt P10721)
[3] = target: TIE1 (human) (UniProt P35590)
[4] = system: EGFR (human), P00533 [G719S]
[5] = system: PIK3CA (human), P42336 [E545K]
[6] = target: PIK3CG (human) (UniProt P48736)
[7] = target: PIK3CA (human) (UniProt P42336)
[8] = target: BRAF (human) (UniProt P15056)
[9] = system: EGFR (human), P00533 [L861Q]
[10] = target: DDR1 (human) (UniProt Q08345)
[11] = target: SIK3 (human) (UniProt Q9Y2K2)
[12] = target: MATK (human) (UniProt P42679)
[13] = target: GRK1 (human) (UniProt Q15835)
[14] = target: ICK (human) (UniProt Q9UPZ9)
[15] = target: PIK3C2G (human) (UniProt O75747)
[16] = system: PIK3CA (human), P42336 [C420R]
[17] = target: GRK7 (human) (UniProt Q8WTQ7)
[18] = target: GRK4 (human) (UniProt P32298)
[19] = target: MAP3K6 (human) (UniProt O95382)
[20] = target: HIPK3 (human) (UniProt Q9H422)
HIPK3 (human), sequence (Q9H422 whole entry, looked up): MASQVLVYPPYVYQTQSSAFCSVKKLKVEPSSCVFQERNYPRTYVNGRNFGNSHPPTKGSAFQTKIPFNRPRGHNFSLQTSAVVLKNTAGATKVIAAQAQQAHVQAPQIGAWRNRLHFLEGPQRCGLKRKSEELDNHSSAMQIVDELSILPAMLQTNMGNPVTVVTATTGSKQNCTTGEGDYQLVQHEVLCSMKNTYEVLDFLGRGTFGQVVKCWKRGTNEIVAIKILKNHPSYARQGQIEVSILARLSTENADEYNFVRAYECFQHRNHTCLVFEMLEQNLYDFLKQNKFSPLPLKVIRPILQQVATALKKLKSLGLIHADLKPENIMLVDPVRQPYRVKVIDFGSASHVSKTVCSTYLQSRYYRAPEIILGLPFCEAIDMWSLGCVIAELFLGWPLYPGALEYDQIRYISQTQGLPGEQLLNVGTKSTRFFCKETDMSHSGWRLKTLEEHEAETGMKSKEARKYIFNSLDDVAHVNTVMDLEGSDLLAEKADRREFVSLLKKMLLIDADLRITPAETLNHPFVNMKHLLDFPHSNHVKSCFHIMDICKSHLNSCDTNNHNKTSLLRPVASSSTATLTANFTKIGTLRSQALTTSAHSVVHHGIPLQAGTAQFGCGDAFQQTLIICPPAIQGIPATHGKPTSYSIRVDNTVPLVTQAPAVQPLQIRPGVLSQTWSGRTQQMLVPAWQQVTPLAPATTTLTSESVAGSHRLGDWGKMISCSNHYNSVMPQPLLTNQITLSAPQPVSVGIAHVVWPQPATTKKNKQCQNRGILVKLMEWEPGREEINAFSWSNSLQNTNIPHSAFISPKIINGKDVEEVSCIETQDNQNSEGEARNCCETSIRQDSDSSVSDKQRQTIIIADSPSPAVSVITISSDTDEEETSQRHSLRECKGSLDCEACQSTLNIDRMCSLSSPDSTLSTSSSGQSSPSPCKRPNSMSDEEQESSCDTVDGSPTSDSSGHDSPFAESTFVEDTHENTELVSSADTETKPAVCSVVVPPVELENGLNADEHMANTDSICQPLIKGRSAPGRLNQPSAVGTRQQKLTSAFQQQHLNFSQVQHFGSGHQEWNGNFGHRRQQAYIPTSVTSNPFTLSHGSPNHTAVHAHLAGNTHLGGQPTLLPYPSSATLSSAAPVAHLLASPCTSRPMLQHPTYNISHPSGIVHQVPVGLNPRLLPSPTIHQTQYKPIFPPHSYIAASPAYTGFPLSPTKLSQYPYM

[21] = target: PLK2 (human) (UniProt Q9NYY3)
[22] = target: IRAK1 (human) (UniProt P51617)
IRAK1 (human), sequence (P51617 whole entry, looked up): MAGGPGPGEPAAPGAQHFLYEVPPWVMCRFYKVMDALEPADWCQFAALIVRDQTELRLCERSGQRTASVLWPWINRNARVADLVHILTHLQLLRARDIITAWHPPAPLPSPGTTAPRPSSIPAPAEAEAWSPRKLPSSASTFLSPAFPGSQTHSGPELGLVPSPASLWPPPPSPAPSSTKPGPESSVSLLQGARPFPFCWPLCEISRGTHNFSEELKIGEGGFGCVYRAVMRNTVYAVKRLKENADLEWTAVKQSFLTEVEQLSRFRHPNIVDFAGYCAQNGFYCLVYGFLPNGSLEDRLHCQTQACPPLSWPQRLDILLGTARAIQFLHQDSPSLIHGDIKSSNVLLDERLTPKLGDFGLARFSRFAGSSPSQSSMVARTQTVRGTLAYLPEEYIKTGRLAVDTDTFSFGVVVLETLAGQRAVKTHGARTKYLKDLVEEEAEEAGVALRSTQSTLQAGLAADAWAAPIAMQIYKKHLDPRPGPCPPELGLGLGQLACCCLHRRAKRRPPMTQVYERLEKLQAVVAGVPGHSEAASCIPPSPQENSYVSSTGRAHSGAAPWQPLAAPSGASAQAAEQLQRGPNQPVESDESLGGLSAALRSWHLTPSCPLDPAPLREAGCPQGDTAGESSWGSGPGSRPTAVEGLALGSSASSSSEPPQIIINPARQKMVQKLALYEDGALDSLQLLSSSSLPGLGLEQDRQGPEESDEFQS

[23] = target: STK38 (human) (UniProt Q15208)
STK38 (human), sequence (Q15208 whole entry, looked up): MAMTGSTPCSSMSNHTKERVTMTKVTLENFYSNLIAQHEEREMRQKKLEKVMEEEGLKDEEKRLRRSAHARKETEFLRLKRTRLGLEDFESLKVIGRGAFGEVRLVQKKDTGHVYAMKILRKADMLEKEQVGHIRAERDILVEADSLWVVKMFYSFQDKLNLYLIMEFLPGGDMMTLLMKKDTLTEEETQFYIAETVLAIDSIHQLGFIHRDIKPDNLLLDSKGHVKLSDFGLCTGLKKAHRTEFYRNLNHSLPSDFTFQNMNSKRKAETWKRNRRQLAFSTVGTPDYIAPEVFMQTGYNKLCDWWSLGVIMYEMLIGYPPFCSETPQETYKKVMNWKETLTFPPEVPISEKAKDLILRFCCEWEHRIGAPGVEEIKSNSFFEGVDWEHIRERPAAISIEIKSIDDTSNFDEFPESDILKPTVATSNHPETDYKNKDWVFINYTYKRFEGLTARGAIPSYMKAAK

[24] = target: DYRK2 (human) (UniProt Q92630)
[25] = target: NIM1 (human) (UniProt Q8IY84)
NIM1 (human), sequence (Q8IY84 whole entry, looked up): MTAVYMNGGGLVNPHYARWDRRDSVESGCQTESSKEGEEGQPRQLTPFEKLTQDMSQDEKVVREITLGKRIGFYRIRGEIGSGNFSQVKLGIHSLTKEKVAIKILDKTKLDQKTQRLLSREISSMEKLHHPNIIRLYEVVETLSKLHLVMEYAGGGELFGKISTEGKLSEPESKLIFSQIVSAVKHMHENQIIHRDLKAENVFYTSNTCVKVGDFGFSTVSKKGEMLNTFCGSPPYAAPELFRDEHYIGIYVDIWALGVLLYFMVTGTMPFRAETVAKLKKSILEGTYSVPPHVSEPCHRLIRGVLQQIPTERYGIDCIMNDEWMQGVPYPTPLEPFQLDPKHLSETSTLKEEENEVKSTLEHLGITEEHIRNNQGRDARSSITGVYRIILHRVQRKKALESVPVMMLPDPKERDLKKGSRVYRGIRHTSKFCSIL

[26] = target: MAST1 (human) (UniProt Q9Y2H9)
[27] = target: HIPK2 (human) (UniProt Q9H2X6)
[28] = target: CDKL3 (human) (UniProt Q8IVW4)

PIK3CG (human), sequence (P48736 whole entry, looked up): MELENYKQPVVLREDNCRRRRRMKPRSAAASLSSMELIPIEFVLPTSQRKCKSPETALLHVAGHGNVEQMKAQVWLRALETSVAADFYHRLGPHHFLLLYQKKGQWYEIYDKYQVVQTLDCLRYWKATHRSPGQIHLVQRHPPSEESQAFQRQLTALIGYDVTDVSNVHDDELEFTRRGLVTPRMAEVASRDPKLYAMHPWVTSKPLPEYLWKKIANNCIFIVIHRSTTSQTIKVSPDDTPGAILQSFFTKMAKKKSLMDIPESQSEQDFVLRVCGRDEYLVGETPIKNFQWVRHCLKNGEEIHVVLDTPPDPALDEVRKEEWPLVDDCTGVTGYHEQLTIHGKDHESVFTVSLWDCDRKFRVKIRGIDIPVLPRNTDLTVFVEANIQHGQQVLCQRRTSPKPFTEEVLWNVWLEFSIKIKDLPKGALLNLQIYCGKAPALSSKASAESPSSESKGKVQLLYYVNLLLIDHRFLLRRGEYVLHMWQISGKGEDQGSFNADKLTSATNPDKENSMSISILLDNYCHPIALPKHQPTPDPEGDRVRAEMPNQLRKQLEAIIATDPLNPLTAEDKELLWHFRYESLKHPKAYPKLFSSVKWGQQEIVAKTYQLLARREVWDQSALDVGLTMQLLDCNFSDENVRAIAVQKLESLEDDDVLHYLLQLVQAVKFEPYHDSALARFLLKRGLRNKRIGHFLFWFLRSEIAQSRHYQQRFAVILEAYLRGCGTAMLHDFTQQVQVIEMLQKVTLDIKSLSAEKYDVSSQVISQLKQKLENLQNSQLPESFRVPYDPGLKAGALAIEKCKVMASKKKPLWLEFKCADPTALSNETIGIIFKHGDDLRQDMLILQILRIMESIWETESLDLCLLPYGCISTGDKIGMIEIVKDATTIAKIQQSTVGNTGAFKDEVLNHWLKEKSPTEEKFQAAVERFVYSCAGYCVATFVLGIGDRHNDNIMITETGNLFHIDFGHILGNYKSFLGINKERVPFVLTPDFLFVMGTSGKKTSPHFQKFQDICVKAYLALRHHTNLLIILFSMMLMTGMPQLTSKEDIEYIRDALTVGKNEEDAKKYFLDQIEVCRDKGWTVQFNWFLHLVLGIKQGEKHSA
KIT (human), sequence (P10721 whole entry, looked up): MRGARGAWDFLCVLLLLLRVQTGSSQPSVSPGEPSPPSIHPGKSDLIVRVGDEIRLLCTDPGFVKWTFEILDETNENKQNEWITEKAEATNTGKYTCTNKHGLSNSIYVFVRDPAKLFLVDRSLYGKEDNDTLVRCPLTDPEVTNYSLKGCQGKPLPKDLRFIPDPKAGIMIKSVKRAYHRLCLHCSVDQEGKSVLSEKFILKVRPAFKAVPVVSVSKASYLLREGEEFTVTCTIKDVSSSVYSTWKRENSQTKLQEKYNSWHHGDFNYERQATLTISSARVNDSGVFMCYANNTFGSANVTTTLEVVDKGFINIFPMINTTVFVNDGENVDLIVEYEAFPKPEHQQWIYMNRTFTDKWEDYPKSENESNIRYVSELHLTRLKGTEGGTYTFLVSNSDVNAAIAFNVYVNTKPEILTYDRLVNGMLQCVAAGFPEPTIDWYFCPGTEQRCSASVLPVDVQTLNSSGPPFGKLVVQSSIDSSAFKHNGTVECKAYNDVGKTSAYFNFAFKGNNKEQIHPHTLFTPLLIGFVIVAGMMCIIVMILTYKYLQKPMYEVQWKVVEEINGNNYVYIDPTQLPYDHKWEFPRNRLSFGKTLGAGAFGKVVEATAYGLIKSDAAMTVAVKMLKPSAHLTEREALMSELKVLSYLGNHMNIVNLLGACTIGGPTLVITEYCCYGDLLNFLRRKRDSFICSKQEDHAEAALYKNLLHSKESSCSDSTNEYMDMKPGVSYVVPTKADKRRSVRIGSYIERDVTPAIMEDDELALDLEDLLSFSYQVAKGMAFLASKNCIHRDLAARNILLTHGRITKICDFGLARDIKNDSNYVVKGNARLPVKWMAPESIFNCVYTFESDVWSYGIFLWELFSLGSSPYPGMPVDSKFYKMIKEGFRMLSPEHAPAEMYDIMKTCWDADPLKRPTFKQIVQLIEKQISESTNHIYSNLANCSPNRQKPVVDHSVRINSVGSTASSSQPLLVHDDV

Structure (SMILES)	kinase still bound, per cent of control [1]	kinase still bound, per cent of control [2]	kinase still bound, per cent of control [3]	kinase still bound, per cent of control [4]	kinase still bound, per cent of control [5]	kinase still bound, per cent of control [6]	kinase still bound, per cent of control [7]	kinase still bound, per cent of control [8]	kinase still bound, per cent of control [9]	kinase still bound, per cent of control [10]	kinase still bound, per cent of control [11]	kinase still bound, per cent of control [12]	kinase still bound, per cent of control [13]	kinase still bound, per cent of control [14]	kinase still bound, per cent of control [15]	kinase still bound, per cent of control [17]	kinase still bound, per cent of control [18]	kinase still bound, per cent of control [19]	kinase still bound, per cent of control [20]	kinase still bound, per cent of control [21]	other results
Cc1ccc(C(=O)Nc2cccc(C(F)(F)F)c2)cc1Nc1cncc(C(N)=O)c1	100%	0%	100%	100%	100%	100%	100%	2%	100%	0.1%											
OCCCNc1cc(-c2ccnc(Nc3cccc(Cl)c3)n2)ccn1	100%	100%	100%	100%	100%	100%	100%	100%	100%	100%	100%	100%	100%	2.2%	100%	100%	100%	100%	100%	100%	kinase still bound, per cent of control [16]: 100%; kinase still bound, per cent of control [22]: 100%; kinase still bound, per cent of control [23]: 100%; kinase still bound, per cent of control [24]: 100%; kinase still bound, per cent of control [25]: 100%; kinase still bound, per cent of control [26]: 100%; kinase still bound, per cent of control [27]: 15%; kinase still bound, per cent of control [28]: 5.4%
C=CC(=O)Nc1cccc(Oc2nc(Nc3ccc(N4CCN(C)CC4)cc3OC)ncc2Cl)c1	0.1%	34%	100%	0.3%	100%	100%	100%	100%	0.05%	100%											
Cn1c(=O)n(-c2ccc(C(C)(C)C#N)cc2)c2c3cc(-c4cnc5ccccc5c4)ccc3ncc21		100%	100%	100%	3%	23%	2.8%	100%	100%	100%	100%	100%	100%	100%	4.4%	100%	100%	100%	100%	100%	kinase still bound, per cent of control [22]: 100%; kinase still bound, per cent of control [23]: 100%; kinase still bound, per cent of control [24]: 100%; kinase still bound, per cent of control [25]: 100%; kinase still bound, per cent of control [26]: 100%; kinase still bound, per cent of control [27]: 100%; kinase still bound, per cent of control [28]: 100%

More lines, main results first:

kinase still bound, per cent of control [1]	kinase still bound, per cent of control [2]	kinase still bound, per cent of control [3]	kinase still bound, per cent of control [4]	kinase still bound, per cent of control [5]	kinase still bound, per cent of control [6]	kinase still bound, per cent of control [7]	kinase still bound, per cent of control [8]	kinase still bound, per cent of control [9]	kinase still bound, per cent of control [10]	kinase still bound, per cent of control [11]	kinase still bound, per cent of control [12]	kinase still bound, per cent of control [13]	kinase still bound, per cent of control [14]	kinase still bound, per cent of control [15]	kinase still bound, per cent of control [17]	kinase still bound, per cent of control [18]	kinase still bound, per cent of control [19]	kinase still bound, per cent of control [20]	kinase still bound, per cent of control [21]	Structure (SMILES)	other results
100%	100%	100%	100%	100%	100%	100%		100%	100%	100%	100%	100%	100%	100%	100%	100%	100%	100%	100%	COc1cc(C(=O)NC2CCN(C)CC2)ccc1Nc1ncc2c(n1)N(C1CCCC1)CCC(=O)N2C(C)C	kinase still bound, per cent of control [16]: 100%; kinase still bound, per cent of control [22]: 100%; kinase still bound, per cent of control [23]: 100%; kinase still bound, per cent of control [24]: 100%; kinase still bound, per cent of control [25]: 100%; kinase still bound, per cent of control [26]: 100%; kinase still bound, per cent of control [27]: 100%; kinase still bound, per cent of control [28]: 100%
	100%	100%		100%	100%	100%	100%		100%											CC[C@@H]1C(=O)N(C)c2cnc(Nc3ccc(C(=O)NC4CCN(C)CC4)cc3OC)nc2N1C1CCCC1	
100%	100%	100%	100%	100%	100%	100%		100%	100%											COc1cc(C(=O)NC2CCN(C)CC2)ccc1Nc1ncc2c(n1)N(C1CCCC1)C(C)CC(=O)N2C (configuration not stated)	
